Laboratory results taken from patent US20150080844A1, “THERAPY FOR KIDNEY DISEASE AND/OR HEART FAILURE BY INTRADERMAL INFUSION” (Medtronic, Inc., priority 2012, published 2015).
Where two headings read alike, the source gives them in different places.

Key:
[1] = design: species or system humans; conditions: in vivo
Protocol: (§1) Osterode et al. published plasma concentration data for humans injected with ANP by either SQ or IV bolus. FIG. 5 presents the IV bolus data (FIG. 5A) and SQ bolus data (FIG. 5B) from the Osterode et al. with selected points digitized shown by open circles.
The digitized data points from FIG. 5A and FIG. 5B were baseline-corrected and analyzed using a commercial pharmacokinetic analysis software package (Phoenix v6.2, Pharsight, Cary, N.C.). Non-compartmental analysis (NCA) was performed first, followed by compartmental modeling. Bioavailability for administration into the SQ space (F) was estimated by dividing the area-under-the-curve (AUC) for the SQ bolus (FIG. 5B) by the AUC IV bolus (FIG. 5A), which was assumed to have 100% bioavailability. The slope of the terminal phase (λZ) for the IV and SQ data from FIG. 5 was estimated using linear regression. The estimate for λZ was converted to a half-life (t1/2) using Equation 1. […]
Similarly, the one-compartmental model for SQ bolus injection can be modeled by Equations 4 and 5, where Aa is the amount of drug in the injection site (pmol), ka is the absorption rate constant (1/min), and F is the bioavailability as a unitless decimal. […] Clearance (CL) and t½ were calculated as secondary model parameters. […]

clinical = test: clinical; design: species or system humans; conditions: in vivo; for bioavailability: F (bioavailability)
Protocol: as §1
The digitized data points from FIG. 5A and FIG. 5B were baseline-corrected and analyzed using a commercial pharmacokinetic analysis software package (Phoenix v6.2, Pharsight, Cary, N.C.). Non-compartmental analysis (NCA) was performed first, followed by compartmental modeling. Bioavailability for administration into the SQ space (F) was estimated by dividing the area-under-the-curve (AUC) for the SQ bolus (FIG. 5B) by the AUC IV bolus (FIG. 5A), which was assumed to have 100% bioavailability. The slope of the terminal phase (λZ) for the IV and SQ data from FIG. 5 was estimated using linear regression. The estimate for λZ was converted to a half-life (t1/2) using Equation 1.
Similarly, the one-compartmental model for SQ bolus injection can be modeled by Equations 4 and 5, where Aa is the amount of drug in the injection site (pmol), ka is the absorption rate constant (1/min), and F is the bioavailability as a unitless decimal. The initial estimates for primary model parameters ke and V/F were taken from the results of the NCA analysis of the IV data (ke=λZ) from the IV bolus data in FIG. 5A from Osterode et al. The initial estimate for the primary model parameter ka was taken from the results of the NCA analysis of the SQ data (ka=λZ) from the SQ bolus data in FIG. 5B. Clearance (CL) and t½ were calculated as secondary model parameters.
Table 1 reports the values for AUC, elimination t1/2, volume of distribution (V) and clearance (CL) reported by Osterode et al. compared to those obtained from the NCA analysis of the digitized data as described above.
The results of the one-compartment modeling of the data from Osterode et al. are reported in Table 2 and FIG. 7, where the present NCA results are also included for comparison. FIGS. 7A (log scale) and 7B (non-log scale) show a model for a 50 μg IV bolus and FIGS. 7C (log scale) and 7D (non-log scale) show a model for a 50 μg SQ bolus. Both the NCA and compartmental analysis estimate the bioavailability to be approximately 20%. It is notable that the estimates for ka from the SQ bolus data are nearly identical for the NCA and compartmental analysis (0.039 min^−1), while the compartmental analysis estimate for ke is 2.6-times greater than the NCA estimate (0.26 vs. 0.099 min^−1).

[2] = in vivo, iv, 50 ug; cited from earlier work
[3] = in vivo, cited from earlier work
[4] = intradermal delivery; literature; cited from earlier work

CC[C@H](C)[C@@H]1NC(=O)[C@H](CCCNC(=N)N)NC(=O)[C@H](CC(=O)O)NC(=O)[C@H](CCSC)NC(=O)[C@H](CCCNC(=N)N)NC(=O)CNC(=O)CNC(=O)[C@H](Cc2ccccc2)NC(=O)[C@@H](NC(=O)[C@H](CO)NC(=O)[C@H](CO)NC(=O)[C@H](CCCNC(=N)N)NC(=O)[C@H](CCCNC(=N)N)NC(=O)[C@H](CC(C)C)NC(=O)[C@@H](N)CO)CSSC[C@@H](C(=O)N[C@@H](CC(N)=O)C(=O)N[C@@H](CO)C(=O)N[C@@H](Cc2ccccc2)C(=O)N[C@@H](CCCNC(=N)N)C(=O)N[C@@H](Cc2ccc(O)cc2)C(=O)O)NC(=O)CNC(=O)[C@H](CC(C)C)NC(=O)CNC(=O)[C@H](CO)NC(=O)[C@H](CCC(N)=O)NC(=O)[C@H](C)NC(=O)CNC1=O [ANP, atrial natriuretic peptide]
AUC ([1]; human, iv, 50 ug): 1731 pmol·min/L | ke [1]: 0.099 min⁻¹ | AUC (clinical; human, 50 ug): 344 pmol·min/L | bioavailability (clinical; human): ~20% | F (bioavailability) (clinical; human, iv): 19.9% | bioavailability (clinical; human, iv): ~20% | V/F (clinical): 167 L | compartmental analysis estimate for ke relative to NCA estimate (clinical): 2.6 times | ke (clinical): 0.26 min⁻¹ | ke/ka (elimination greater than absorption) (clinical): 6.6 | AUC [2]: 1793 pmol·min/L | F (bioavailability) ([3]; human): 19.2% | AUC ([3]; 50 ug): 345 pmol·min/L | mean terminal half-life, SQ bolus compared to IV bolus ([3]; 50 ug): 3 fold

Entanercept
bioavailability (in words) [4]: high bioavailability

Somatropin
bioavailability (in words) [4]: high bioavailability
